Experimental data as given in patent US20230313199A1, “TARGET FOR MODULATING BODY MASS” (Massachusetts Institute of Technology, priority 2020, published 2023).

How the values were obtained:
HP motif peptide = biological target: T1, HP motif peptide (Homo sapiens, UniProt Q9UPI3); assay: Heme absorbance-shift assay with wild-type HP motif peptide; type: binding; settings: 100 μM heme, various concentrations of HP motif peptide
T1 construct: a synthetic 14-amino acid HP motif peptide; made in house; host or cells: chemical solid-phase synthesis (Koch Institute Biopolymers & Proteomics Core)
Procedure: Peptide synthesis. Wild-type HP motif peptide (HPSALAQPSGLAHP) and mutant HP motif peptide (APSALAQPSGLAAP) were synthesized using solid-phase synthesis and purified using HPLC by the Biopolymers & Proteomics Core at the Koch Institute for Integrative Cancer Research.
Heme absorbance-shift assay. Hemin was prepared fresh before each experiment. Approximately 20 mg of hemin (Sigma) was placed in a fresh tube and resuspended with 1 mL of DMSO. The hemin solution was slowly diluted while mixing with 1 mL of 2× buffer C (25 mM HEPES-NaOH pH 7.8, 10 mM NaCl), and aggregated hemin was eliminated by passing the solution through a 0.2 μm filter unit. Hemin concentration was determined by diluting the filtered solution with 1× buffer C 1:100 and using the extinction coefficient of 58,400 cm^−1M^−1 at 385 nm. For each reaction, the 200 μL reaction mix containing 100 μM hemin, 25 mM HEPES-NaOH pH 7.8, 10 mM NaCl, and various concentrations of wild-type or mutant NTD protein, was placed in a transparent 96-well plate. Absorbance intensity was measured using Tecan Infinite M200 Pro microplate reader, between 330 and 550 nm using 5 nm steps. The absorbance intensity for dissolved hemin was subtracted from absorbance intensity from hemin incubated with various concentrations of protein.

4B8^FL cells = assay: OCR and ECAR (Seahorse) in 4B8 cells complemented with full length MFSD7C; type: cell-based, human; settings: heme 1 hour
Procedure: FIGS. 4A-4H show NTD of MFSD7C mediates heme effect on mitochondrial respiration. FIGS. 4A-4C show comparison of basal OCR (FIG. 4A), maximal OCR (FIG. 4B) and ECAR (FIG. 4C) of THP-1, 4B8, and 4B8^FL and 4B8^ΔN cells treated with vehicle or heme for 1 hour (n=18 separate experiments). […] Cells were incubated with FPT for 6 hrs, washed and reseeded in poly-lysine coated glass bottom dishes. After cells attached to the glass, medium containing 40 μM heme was added. Cells in the same field were imaged immediately and again 1 hour later. Relative FPT fluorescent intensities, normalized to THP-1, from three experiments are shown. (n=3 independent experiments). […] THP-1, 4B8, 4B8^FL and 4B8^ΔN cells were treated with vehicle or heme for 1 hour and MMP was measured by using JC-10 Mitochondrial Membrane Potential Assay Kit followed by flow cytometry. […] Shown are representative Western blotting data (FIG. 4G) and quantification of band intensities from n=3 independent experiments (FIG. 4H). P-values were calculated using two-way ANOVA (*p<0.05, **p<0.01, ***p<0.005). […]
Measurements of OCR, ECAR, and MMP. Oxygen consumption rate (OCR) and extracellular acidification rate (ECAR) were measured using XF96e Seahorse Extracellular Flux Analyzer per manufacturer's protocol. […]

SMILES: C=CC1=C(C)c2cc3[n-]c(cc4[n-]c(cc5nc(cc1n2)C(C)=C5C=C)c(C)c4CCC(=O)O)c(CCC(=O)O)c3C.[Fe+2] [heme]
- absorbance shift of heme (Soret band, Q band) (HP motif peptide): concentration-dependent increase in Soret band and Q band peaks
- ECAR (4B8^FL cells): increased
- OCR (4B8^FL cells): increased
